Assay results published in patent US6596499B2, “Membrane molecule indicator compositions and methods” (The Netherlands Cancer Institute, priority 2000, dated 2003).

Experiments:
PLC = assay type: cell-based, mouse
N1E-115 cells = settings: N1E-115 and other cells; cited from earlier work

## NCCc1c[nH]cn1 [histamine]
PLC
  duration of translocation response (long-lasting): ≥ 15 min
  translocation amplitude: 40 % of BK-induced peak values

## neurokinin A [NKA]
PLC
  desensitization of PLC activation on repeated stimulation: incremental partial homologous desensitization

## CCCCCCCC/C=C\CCCCCCCC(=O)OCC(O)COP(=O)(O)O (centres unmarked) [LPA, 1-oleoyl LPA]
PLC
  translocation amplitude: 25 % of BK response control values
N1E-115 cells
  time for neurites to retract and cell soma to round up: ≤ 60 s
